Measurements taken from PMC6270258, “Diosgenone Synthesis, Anti-Malarial Activity and QSAR of Analogues of This Natural Product” (Molecules, 2013).
Read-outs that look alike come from different tables or passages of the source.

Columns and labels:
[1] = system: Plasmodium falciparum FCB-2 (chloroquine-resistant) strain; assay: In vitro antiplasmodial activity, [3H]hypoxanthine incorporation, FCB-2 strain; format: cell-based; details: for RI (resistance index): IC50 FCB-2 (resistant strain)/IC50 NF-54 (sensitive strain); for antiplasmodial activity (in words): P. falciparum FCB-2 and NF-54 strains, compared to diosgenone or parent; for IC50: Plasmodium falciparum, 48 h, read-out: IC50 μM ± SD FCB-2
Method: (§1) A 10 mg/mL stock solution was prepared. […] A 50 μL sample was extracted from this solution and adjusted to 1,000 μL with RPMI-1640 without hypoxanthine until a final 500 μg/mL concentration was reached. The P. falciparum FcB-2 (Colombia) and NF54 (The Netherlands) strains were used for assessing anti-malarial activity.
(§2) Trager and Jensen’s method was used for culturing strains [24, 25]. The methods described by Desjardins et al. [26] were used for evaluating the structural analogs’ in vitro antiplasmodial activity, with some modifications. […] 1.0 µCi/mL of [3H] hypoxanthine (MP Biomedicals, Santa Ana, CA, USA) was added to each well and the plates were then incubated for 48 h at 37 °C in 5% CO2, 5% O2 in a balanced N2 atmosphere. Parasite DNA was harvested and radioactivity was determined by automatic TDCR liquid scintillation counter plate (Chameleon, Hidex Oy, Finland). Experiments were repeated twice with two or three replicates each. A nonlinear regression sigmoidal dose-response (variable slope) model was used to estimate concentration inhibiting 50% growth (IC50) values for each derivative.

[2] = system: Plasmodium falciparum NF-54 strain; assay: In vitro antiplasmodial activity, [3H]hypoxanthine incorporation, NF-54 strain; format: cell-based; details: 48 h, read-out: IC50 μM ± SD NF-54
Method: as §1, §2

[3] = Cytotoxicity, MTT colorimetric test; format: cell-based, human; details: human
Method: (§3) Steroidal derivatives’ cytotoxicity regarding the HepG2-A16 cell line was evaluated by colorimetric test using 3-(4,5-dimethylthiazolyl-2)-2,5-diphenyltetrazolium bromide (MTT), as described by Mosmann [28]. […] An aliquot of each derivative dilution (100 μL, 1,000, 100, 10 and 1 μg/mL) was then added to the wells in triplicate. […] The DMSO diluent agent was evaluated in complete medium and negative controls (untreated cells) were included. Absorbance was measured at 550 nm and statistical Prism software version 5.0 (GraphPad Software Inc., La Jolla, CA, USA) was used for calculating toxic concentration (CC50). Amphotericin B was used as positive control in this assay.

[4] = system: HepG2-A16 human hepatoma cells; assay: Cytotoxicity, MTT colorimetric test; format: cell-based; details: for SI (selectivity index): CC50 HepG2/IC50 parasite FCB-2
Method: as §3

[5] = P. falciparum FCB-2 chloroquine-resistant strain
[6] = P. falciparum NF-54 chloroquine-sensitive strain

In the case of `CC1=CC[C@@]2(C)C(=C1)CC[C@H]1[C@@H]3C[C@@H]4O[C@]5(CC[C@@H](C)CO5)[C@@H](C)[C@@H]4[C@@]3(C)CC[C@@H]12` [Compound 7, (25R)-3-Methyl-spirostan-2,4-diene], the “RI (resistance index)” value [1] is reported as 2.0, the “antiplasmodial activity (in words)” value [1] is reported as “marginal activity compared to diosgenone” and the IC50 [1, 5] is reported as 70.4 ± 5.5 µM. The IC50 [2, 6] was 34.6 ± 3.3 µM, the CC50 at 48 h [3] was 217 µM and the “SI (selectivity index)” value [4] was 3.1. The melting point was 172 to 174 °C.

In the case of `C[C@@H]1CC[C@@]2(OC1)O[C@H]1C[C@H]3[C@@H]4CCC5=CC(O)(Cc6ccccc6)CC[C@]5(C)[C@H]4CC[C@]3(C)[C@H]1[C@@H]2C` (stereo partly drawn) [Compound 8, (25R)-3-Benzyl-spirostan-4-en-3-ol], the “antiplasmodial activity (in words)” value [1] is reported as “inactive against both P. falciparum strains”, the IC50 [1, 5] is reported as > 396 µM and the IC50 [2, 6] is reported as > 396 µM. For the same compound, the CC50 at 48 h [3] was > 1980 µM and the melting point was 203 to 205 °C.

In the case of `Cc1ccc(S(=O)(=O)NN=C2C=C3CCC4C(CCC5(C)C4CC4OC6(CCC(C)CO6)C(C)C45)C3(C)CC2)cc1` [Compound 9, (25R)-3-p-Toluenehydrazine-spirostan-4-ene], the “RI (resistance index)” value [1] is reported as 1.1, the “antiplasmodial activity (in words)” value [1] is reported as “marginal activity compared to diosgenone” and the IC50 [1, 5] is reported as 56.1 ± 0.3 µM. For the same compound, the IC50 [2, 6] was 52.5 ± 7.7 µM, the CC50 at 48 h [3] was > 1170 µM and the melting point was 148 to 150 °C.

With `C[C@@H]1CC[C@@]2(OC1)O[C@H]1C[C@H]3[C@@H]4CCC56OC5C(=O)CC[C@]6(C)[C@H]4CC[C@]3(C)[C@H]1[C@@H]2C` (stereo partly drawn) [Compound 10, (25R)-4,5-Epoxy-spirostan-3-one] the “RI (resistance index)” value [1] was 0.5, the “antiplasmodial activity (in words)” value [1] was “marginal activity compared to diosgenone” and the IC50 [1, 5] was 56.7 ± 6.3 µM. For the same compound, the IC50 [2, 6] was 106 ± 7.7 µM, the CC50 at 48 h [3] was 101 µM and the “SI (selectivity index)” value [4] was 1.8. The melting point was 184 to 186 °C.

For `C[C@@H]1CC[C@@]2(OC1)O[C@H]1C[C@H]3[C@@H]4CCC5=CC(=O)C=C[C@]5(C)[C@H]4CC[C@]3(C)[C@H]1[C@@H]2C` [Compound 12, (25R)-1,4-Spirostadien-3-one], the “RI (resistance index)” value [1] was 1.2, the IC50 [1, 5] was 36 ± 2.3 µM and the IC50 [2, 6] was 29.2 ± 1.1 µM. For the same compound, the CC50 at 48 h [3] was > 487 µM and the melting point was 181 to 183 °C.

In the case of `C[C@@H](CI)CCC(=O)[C@@H](C)[C@H]1C(=O)CC2C3CCC4=CC(=O)CC[C@]4(C)C3CC[C@@]21C` (stereo partly drawn) [Compound 15, (25R)-26-Iodine-cholest-4-en-3,16,22-trione], the “RI (resistance index)” value [1] is reported as 1.3, the IC50 [1, 5] is reported as 2.9 ± 0.3 µM and the IC50 [2, 6] is reported as 2.2 ± 0.4 µM. The CC50 at 48 h [3] was 90.2 µM, the “SI (selectivity index)” value [4] was 31.1 and the melting point was 148 to 150 °C.

For `CC(=O)OC1CC[C@@]2(C)C(=CC[C@H]3[C@@H]4C[C@@H]5O[C@]6(CC[C@@H](C)CO6)[C@@H](C)[C@@H]5[C@@]4(C)CC[C@@H]32)C1` (stereo partly drawn) [Compound 16, (25R)-3-Acetoxy-spirostan-5-ene], the “antiplasmodial activity (in words)” value [1] was “neither active”, the IC50 [1, 5] was > 438 µM and the IC50 [2, 6] was > 438 µM. For the same compound, the CC50 at 48 h [3] was > 2190 µM, the “cytotoxicity (in words)” value [4] was “nor toxic” and the melting point was 182 to 184 °C.

For `CC(=O)OC[C@H](C)CCC(=O)[C@@H](C)[C@H]1C(OC(C)=O)C[C@H]2[C@@H]3CCC4=CC(=O)CC[C@]4(C)[C@H]3CC[C@]12C` (stereo partly drawn) [Compound 23, (25R)-16,26-Diacetoxy-4-cholesten-3,22-dione], the “RI (resistance index)” value [1] was 28.8, the IC50 [1, 5] was 17.3 ± 1.4 µM and the IC50 [2, 6] was 0.6 ± 0.9 µM. The CC50 at 48 h [3] was 281 µM, the “cytotoxicity (in words)” value [4] was “less toxic” and the “SI (selectivity index)” value [4] was 16.2.

With `C[C@H](C(=O)CC[C@@H](C)C=O)[C@H]1C(=O)C[C@H]2[C@@H]3CCC4=CC(=O)CC[C@]4(C)[C@H]3CC[C@]12C` [Compound 25] the “RI (resistance index)” value [1] was 1.3, the IC50 [1] was 123 ± 12.8 µM and the IC50 [2] was 95.9 ± 8.3 µM. For the same compound, the CC50 at 48 h ([3]; HepG2-A16 cells, MTT, 48 h, read-out: CC50) was 45.2 µM and the “SI (selectivity index)” value [4] was 0.4.
